Measured values published in patent US20110244078A1 (priority 2010, published 2011).

Assay: Moisture sensitivity: degradation of the isothiocyanate suspended in aqueous phosphate buffer
Assay type: physicochemical
Details: WMEO (about 25% 4-HBITC) suspended in aqueous phosphate buffer, pH about 3.6, about 20-23° C.
Excerpt: As used herein, the term “moisture sensitive” means that the isothiocyanate compound degrades in the presence of water. This degradation proceeds via a hydrolysis reaction, thereby leading to a reduction in level of the active isothiocyanate antimicrobial agent with time of storage in the presence of water. The method for determining moisture sensitivity is set forth in the Test Method section below. […]
Moisture sensitive isothiocyanate compounds are identified by suspending the isothiocyanate containing material in an aqueous phosphate buffer (pH of about 3.6) at room temperature. […] The extraction procedure is repeated after 24 hours and the level of residual isothiocyanate compound is measured by supercritical fluid chromatography. […]
A white mustard essential oil is generated by adding water to ground white mustard seeds and then extracting the essential oil with supercritical carbon dioxide according to the known processes described in the art. […] The essential oil is suspended in an aqueous phosphate buffer (pH of about 3.6) at room temperature (about 20-23° C.) and the level of 4-hydroxybenzyl isothiocyanate measured at time zero and after about 24 hours of storage as described in the preceding section. […]

Question: For `Oc1ccc(CN=C=S)cc1` [4-hydroxybenzyl isothiocyanate], which “percent reduction in level of 4-hydroxybenzyl isothiocyanate after 24 hours” value is on record?
Answer: The value was “about 72%”.
